Experiments:
[1] = human
[2] = human, serum, 4383 h
[3] = human; remark: listed apart in the source
[4] = human; remark: listed apart in the source
[5] = human; remark: listed apart in the source
[6] = human; remark: listed apart in the source
[7] = human; remark: listed apart in the source
[8] = human; remark: listed apart in the source
[9] = human; remark: listed apart in the source
[10] = human; remark: listed apart in the source
[11] = Highest frequency of acute liver toxicity observed during clinical trials, expressed as a percentage. [column '% AIGUE' in source]; conditions: human
[12] = human; remark: listed apart in the source
[13] = human, serum
[14] = Highest frequency of moderate liver toxicity observed during clinical trials, expressed as a percentage. [column '% BIOL' in source]; conditions: human
[15] = human, serum; remark: listed apart in the source
[16] = Proposed mechanism(s) of liver damage. [column 'MEC' in source]; conditions: human
[17] = Comments (NB not yet translated). [column 'COMMENTAIRES' in source]; conditions: human
[18] = Presence of at least one case with successful reintroduction. [column 'REINT' in source]; conditions: human
[19] = Times to onset, minimal and maximal, observed in the indexed observations. [column 'DELAI' in source]; conditions: human
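Wherever Hepatotoxicity (association with vascular disease) is given: count of indexed literature references reporting vascular liver injury in humans, e.g. peliosis hepatitis, hepatic veno-occlusive disease or Budd-Chiari syndrome.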
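Wherever Hepatotoxicity (benign tumour) is given: value is a count of indexed literature references citing a benign tumour confirmed by histopathology.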
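Wherever Hepatotoxicity (choleostasis) is given: human cholestatic liver injury, shown by histopathology or by peak ALT or AST elevation over alkaline phosphatase ratio below 2, value counts indexed literature reports.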
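Wherever Hepatotoxicity (chronic liver disease) is given: chronic liver injury confirmed by histopathology or persistently raised serum aminotransferase activity beyond 6 months, value given as the count of indexed literature references.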
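Wherever Hepatotoxicity (cirrhosis) is given: value is a count of indexed literature references reporting cirrhosis confirmed by histopathology.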
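Wherever Hepatotoxicity (cytolytic) is given: human cytolytic liver injury, shown by histopathology or by a ratio above 5 of peak ALT or AST elevation to alkaline phosphatase elevation, value counts indexed references.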
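Wherever Hepatotoxicity (granulomatous hepatitis) is given: value is a count of indexed literature references reporting granulomatous liver disease confirmed by histopathology.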
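Wherever Hepatotoxicity (malignant tumour) is given: malignant tumour confirmed by histopathology, value gives the count of indexed literature references reporting it.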
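Wherever Hepatotoxicity (severe hepatitis) is given: human clinical data: severe hepatitis, meaning potentially life-threatening liver failure or clinically observed cases, the value counts how many indexed literature references report it.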
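Wherever Hepatotoxicity (steatosis) is given: steatosis confirmed by histopathology, value is the count of indexed references.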

With CC1(C)[C@H](C(=O)O)N2C(=O)C[C@H]2S1(=O)=O.CCN1CCN(C(=O)N[C@@H](C(=O)N[C@@H]2C(=O)N3C(C(=O)O)=C(CSc4nnnn4C)CS[C@H]23)c2ccc(O)cc2)C(=O)C1=O the “Hepatotoxicity (cytolytic)” value [1] was 0, the “Hepatotoxicity (chronic liver disease)” value [2] was 0 and the “Hepatotoxicity (association with vascular disease)” value [3] was 0. For the same compound, the “Hepatotoxicity (granulomatous hepatitis)” value [4] was 0, the “Hepatotoxicity (malignant tumour)” value [5] was 0 and the “Hepatotoxicity (cirrhosis)” value [6] was 0. The “Hepatotoxicity (choleostasis)” value [7] was 0, the “Hepatotoxicity (steatosis)” value [8] was 0 and the “Hepatotoxicity (benign tumour)” value [9] was 0. The “Hepatotoxicity (animal toxicity known)” value [10] was “yes”.

In the case of N#CN [CYANAMIDE], the “Hepatotoxicity (acute)” value [11] is reported as 0%, the “Hepatotoxicity (severe hepatitis)” value [12] is reported as 0 and the “Hepatotoxicity (acute)” value [13] is reported as 2. The “Hepatotoxicity (cytolytic)” value [1] was 0, the “Hepatotoxicity (chronic liver disease)” value [2] was 11 and the “Hepatotoxicity (association with vascular disease)” value [3] was 0. The “Hepatotoxicity (moderate)” value [14] was 0%, the “Hepatotoxicity (granulomatous hepatitis)” value [4] was 0 and the “Hepatotoxicity (malignant tumour)” value [5] was 0. The “Hepatotoxicity (cirrhosis)” value [6] was 2, the “Hepatotoxicity (choleostasis)” value [7] was 2 and the “Hepatotoxicity (steatosis)” value [8] was 0. For the same compound, the “Hepatotoxicity (benign tumour)” value [9] was 0, the “Hepatotoxicity (moderate)” value [15] was 0 and the “Hepatotoxicity (animal toxicity known)” value [10] was “yes”.

With C[C@]12CC[C@@H]3c4ccc(O)cc4CC[C@H]3[C@@H]1CC[C@@H]2O [ESTRADIOL] the “Hepatotoxicity (acute)” value [11] was 0%, the “Hepatotoxicity (severe hepatitis)” value [12] was 0 and the “Hepatotoxicity (acute)” value [13] was 1. The “Hepatotoxicity (cytolytic)” value [1] was 0, the “Hepatotoxicity (chronic liver disease)” value [2] was 0 and the “Hepatotoxicity (association with vascular disease)” value [3] was 0. For the same compound, the “Hepatotoxicity (moderate)” value [14] was 0%, the “Hepatotoxicity (granulomatous hepatitis)” value [4] was 0 and the “Hepatotoxicity (malignant tumour)” value [5] was 0. The “Hepatotoxicity (cirrhosis)” value [6] was 0, the “Hepatotoxicity (choleostasis)” value [7] was 1 and the “Hepatotoxicity (steatosis)” value [8] was 0. The “Hepatotoxicity (benign tumour)” value [9] was 0, the “Hepatotoxicity (moderate)” value [15] was 0 and the “Hepatotoxicity (animal toxicity known)” value [10] was “yes”.

For CN(C)[C@@H]1C(O)=C(C(N)=O)C(=O)[C@@]2(O)C(O)=C3C(=O)c4c(O)ccc(Cl)c4[C@@](C)(O)[C@H]3C[C@@H]12 [CHLORTETRACYCLINE], the “Hepatotoxicity (acute)” value [11] was 0%, the “Hepatotoxicity (severe hepatitis)” value [12] was 0 and the “Hepatotoxicity (acute)” value [13] was 4. For the same compound, the “Hepatotoxicity (cytolytic)” value [1] was 1, the “Hepatotoxicity (chronic liver disease)” value [2] was 0 and the “Hepatotoxicity (association with vascular disease)” value [3] was 0. For the same compound, the “Hepatotoxicity (moderate)” value [14] was 0%, the “Hepatotoxicity (granulomatous hepatitis)” value [4] was 0 and the “Hepatotoxicity (malignant tumour)” value [5] was 0. For the same compound, the “Hepatotoxicity (cirrhosis)” value [6] was 0, the “Hepatotoxicity (choleostasis)” value [7] was 1 and the “Hepatotoxicity (steatosis)” value [8] was 3. The “Hepatotoxicity (benign tumour)” value [9] was 0, the “Hepatotoxicity (moderate)” value [15] was 0 and the “Hepatotoxicity (animal toxicity known)” value [10] was “yes”.

In the case of Cc1cn([C@H]2CC[C@@H](CO)O2)c(=O)[nH]c1=O, the “Hepatotoxicity (acute)” value [11] is reported as 0%, the “Hepatotoxicity (severe hepatitis)” value [12] is reported as 0 and the “Hepatotoxicity (acute)” value [13] is reported as 0. For the same compound, the “Hepatotoxicity (cytolytic)” value [1] was 0, the “Hepatotoxicity (chronic liver disease)” value [2] was 0 and the “Hepatotoxicity (association with vascular disease)” value [3] was 0. The “Hepatotoxicity (moderate)” value [14] was 30%, the “Hepatotoxicity (granulomatous hepatitis)” value [4] was 0 and the “Hepatotoxicity (malignant tumour)” value [5] was 0. The “Hepatotoxicity (cirrhosis)” value [6] was 0, the “Hepatotoxicity (choleostasis)” value [7] was 0 and the “Hepatotoxicity (steatosis)” value [8] was 0. The “Hepatotoxicity (benign tumour)” value [9] was 0, the “Hepatotoxicity (moderate)” value [15] was 1 and the “Hepatotoxicity (animal toxicity known)” value [10] was “yes”.

In the case of CCOC(=O)C1(c2ccccc2)CCN(CCC(O)c2ccccc2)CC1 (stereo not drawn) [PHENOPERIDINE], the “Hepatotoxicity (acute)” value [11] is reported as 0%, the “Hepatotoxicity (severe hepatitis)” value [12] is reported as 0 and the “Hepatotoxicity (acute)” value [13] is reported as 1. The “Hepatotoxicity (cytolytic)” value [1] was 0, the “Hepatotoxicity (chronic liver disease)” value [2] was 0 and the “Hepatotoxicity (association with vascular disease)” value [3] was 0. The “Hepatotoxicity (moderate)” value [14] was 0%, the “Hepatotoxicity (granulomatous hepatitis)” value [4] was 0 and the “Hepatotoxicity (malignant tumour)” value [5] was 0. For the same compound, the “Hepatotoxicity (cirrhosis)” value [6] was 0, the “Hepatotoxicity (choleostasis)” value [7] was 1 and the “Hepatotoxicity (steatosis)” value [8] was 0. The “Hepatotoxicity (benign tumour)” value [9] was 0, the “Hepatotoxicity (moderate)” value [15] was 0 and the “Hepatotoxicity (animal toxicity known)” value [10] was “yes”.

With POVIDONE-IODINE the “Hepatotoxicity (acute)” value [11] was 0%, the “Hepatotoxicity (severe hepatitis)” value [12] was 0 and the “Hepatotoxicity (acute)” value [13] was 2. The “Hepatotoxicity (cytolytic)” value [1] was 0, the “Hepatotoxicity (chronic liver disease)” value [2] was 0 and the “Hepatotoxicity (association with vascular disease)” value [3] was 0. For the same compound, the “Hepatotoxicity (moderate)” value [14] was 80%, the “Hepatotoxicity (granulomatous hepatitis)” value [4] was 0 and the “Hepatotoxicity (malignant tumour)” value [5] was 0. For the same compound, the “Hepatotoxicity (cirrhosis)” value [6] was 0, the “Hepatotoxicity (choleostasis)” value [7] was 0 and the “Hepatotoxicity (steatosis)” value [8] was 0. For the same compound, the “Hepatotoxicity (benign tumour)” value [9] was 0, the “Hepatotoxicity (moderate)” value [15] was 2 and the “Hepatotoxicity (animal toxicity known)” value [10] was “yes”.

For CC(=O)O[C@]1(C(C)=O)CC[C@H]2[C@@H]3C=C(C)C4=CC(=O)CC[C@]4(C)[C@H]3CC[C@@]21C [MEGESTROL ACETATE], the “Hepatotoxicity (acute)” value [11] was 2.7%, the “Hepatotoxicity (severe hepatitis)” value [12] was 0 and the “Hepatotoxicity (acute)” value [13] was 1. The “Hepatotoxicity (cytolytic)” value [1] was 1, the “Hepatotoxicity (chronic liver disease)” value [2] was 0 and the “Hepatotoxicity (association with vascular disease)” value [3] was 0. The “Hepatotoxicity (moderate)” value [14] was 12.8%, the “Hepatotoxicity (granulomatous hepatitis)” value [4] was 0 and the “Hepatotoxicity (malignant tumour)” value [5] was 0. The “Hepatotoxicity (cirrhosis)” value [6] was 0, the “Hepatotoxicity (choleostasis)” value [7] was 0 and the “Hepatotoxicity (steatosis)” value [8] was 0. The “Hepatotoxicity (benign tumour)” value [9] was 0, the “Hepatotoxicity (moderate)” value [15] was 4 and the “Hepatotoxicity (animal toxicity known)” value [10] was “yes”.

In the case of O=C(OC[C@H]1O[C@@H](OC(=O)c2cc(O)c(O)c(OC(=O)c3cc(O)c(O)c(O)c3)c2)[C@H](OC(=O)c2cc(O)c(O)c(OC(=O)c3cc(O)c(O)c(O)c3)c2)[C@@H](OC(=O)c2cc(O)c(O)c(OC(=O)c3cc(O)c(O)c(O)c3)c2)[C@@H]1OC(=O)c1cc(O)c(O)c(OC(=O)c2cc(O)c(O)c(O)c2)c1)c1cc(O)c(O)c(OC(=O)c2cc(O)c(O)c(O)c2)c1 [TANNIC ACID], the “Hepatotoxicity (acute)” value [11] is reported as 0%, the “Hepatotoxicity (severe hepatitis)” value [12] is reported as 8 and the “Hepatotoxicity (acute)” value [13] is reported as 13. The “Hepatotoxicity (cytolytic)” value [1] was 13, the “Hepatotoxicity (chronic liver disease)” value [2] was 0 and the “Hepatotoxicity (association with vascular disease)” value [3] was 0. For the same compound, the “Hepatotoxicity (moderate)” value [14] was 0%, the “Hepatotoxicity (granulomatous hepatitis)” value [4] was 0 and the “Hepatotoxicity (malignant tumour)” value [5] was 0. For the same compound, the “Hepatotoxicity (cirrhosis)” value [6] was 0, the “Hepatotoxicity (choleostasis)” value [7] was 0 and the “Hepatotoxicity (steatosis)” value [8] was 0. For the same compound, the “Hepatotoxicity (benign tumour)” value [9] was 0, the “Hepatotoxicity (moderate)” value [15] was 0 and the “Hepatotoxicity (animal toxicity known)” value [10] was “yes”.

With CCOC(=O)NNc1nncc2ccccc12 [TODRALAZINE] the “Hepatotoxicity (mechanism)” value [16] was “Allergic”, the “Hepatotoxicity (acute)” value [11] was 0% and the “Hepatotoxicity (comment)” value [17] was “AC_ANTI-N/-MF”. For the same compound, the “Hepatotoxicity (severe hepatitis)” value [12] was 2, the “Hepatotoxicity (acute)” value [13] was 3 and the “Hepatotoxicity (cytolytic)” value [1] was 3. The “Hepatotoxicity (chronic liver disease)” value [2] was 0, the “Hepatotoxicity (association with vascular disease)” value [3] was 0 and the “Hepatotoxicity (moderate)” value [14] was 0%. The “Hepatotoxicity (granulomatous hepatitis)” value [4] was 0, the “Hepatotoxicity (malignant tumour)” value [5] was 0 and the “Hepatotoxicity (cirrhosis)” value [6] was 0. For the same compound, the “Hepatotoxicity (choleostasis)” value [7] was 0, the “Hepatotoxicity (steatosis)” value [8] was 0 and the “Hepatotoxicity (successful reintroduction)” value [18] was “yes”. For the same compound, the “Hepatotoxicity (benign tumour)” value [9] was 0, the “Hepatotoxicity (moderate)” value [15] was 0 and the “Hepatotoxicity (time to onset)” value [19] was 11 days - 2 years.

Reference: ChEMBL document CHEMBL3137667, “[Drug-induced liver injury; fourteenth updated edition of the bibliographic database of liver injuries and related drugs]” (Gastroenterol Clin Biol, 2004)
